According to US9981940B2, “Aryl sulfide derivatives and aryl sulfoxide derivatives as acaricides and insecticides” (BAYER CROPSCIENCE AKTIENGESELLSCHAFT, priority 2013, dated 2018):

Legend:
[1] = log P by HPLC (OECD Guideline 117), method [b] neutral range; format: physicochemical; details: HPLC; for logP[b]: method [b] neutral range; for chromatographic logP: reversed-phase C18 HPLC column, neutral range, pH 7.8
Procedure: (§1) The log P values were determined analogously to OECD Guideline 117 (EC Directive 92/69/EEC) by HPLC (high-performance liquid chromatography) using reversed-phase columns (C 18), by the following methods:
[b] The LC-MS determination in the neutral range is effected at pH 7.8 with 0.001 molar aqueous ammonium hydrogencarbonate solution and acetonitrile as eluents; linear gradient from 10% acetonitrile to 95% acetonitrile.

[2] = log P by HPLC (OECD Guideline 117), method [a] acidic range; format: physicochemical; details: for logP[a]: HPLC, method [a] acidic range; for chromatographic logP: reversed-phase C18 HPLC column, acidic range
Procedure: as §1
[a] The LC-MS determination in the acidic range is effected at pH 2.7 with 0.1% aqueous formic acid and acetonitrile (contains 0.1% formic acid) as eluents; linear gradient from 10% acetonitrile to 95% acetonitrile.

Tetranychus urticae = Tetranychus urticae spray test, OP-resistant (TETRUR); format: in vivo; details: after 6 days; for pest or weed control at 500 g/ha: Tetranychus urticae, 144 h, read-out: efficacy
Summary of the method: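 Mortality as % efficacy (0% = no mites killed) read 6 days after spraying. Formulation: active ingredient in acetone/dimethylformamide plus emulsifier, diluted with emulsifier-containing water, applied to Phaseolus vulgaris leaf discs carrying every life stage of OP-resistant spider mites.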

[3] = pH 2.7, HPLC method [a], read-out: logP[a]
[4] = pH 2.7, HPLC, pH 2.7, read-out: log P[a]

SMILES	logP[b] [1]	logP[a] [2]	efficacy (Tetranychus urticae; application rate of 500 g/ha) [%]	also measured
Cc1cc(F)c(-n2nc(C3CC3)n(C)c2=O)cc1[S+]([O-])CC(F)(F)F (racemic) [Example 352]	1.96	1.99	90	
Cc1cc(F)c(-n2nc(C3CCC3)n(C3CC3)c2=O)cc1SCC(F)(F)F [Example 87]	3.77	3.85	100	
CCn1c([S+]([O-])CC)nn(-c2cc([S+]([O-])CC(F)(F)F)c(C)cc2F)c1=O (centres unmarked) [Example 252]	1.87	1.90	100	
Cc1cc(F)c(-n2nc(C3CCCC3)n(C3CC3)c2=O)cc1[S+]([O-])CC(F)(F)F (centres unmarked) [Example 360]	3.03	3.06	90	
CCCOc1nn(-c2cc(SCC(F)(F)F)c(C)cc2F)c(=O)n1C [Example 127]	3.57	3.61	100	
COc1ccc(-n2nc(C(F)(F)F)n(C3CC3)c2=O)cc1SCC(F)(F)F [Example 52]	3.79	3.84	90	
CC[S+]([O-])c1nn(-c2cc([S+]([O-])CC(F)(F)F)c(C)cc2F)c(=O)n1C1CC1 (centres unmarked) [Example 235]	1.80	1.85	100	
CCOc1nn(-c2ccc(C)c(SCC(F)(F)F)c2)c(=O)n1C [Example 130]	3.74	3.77	90	
Cc1cc(F)c(-n2nc(C3CC3)n(N(C)C)c2=O)cc1SCC(F)(F)F [Example 195, 5-Cyclopropyl-4-(dimethylamino)-2-{2-fluoro-4-methyl-5-[(2,2,2-trifluoroethyl)sulphanyl]phenyl}-2,4-dihydro-3H-1,2,4-triazol-3-one]				chromatographic logP [1]: 3.73; chromatographic logP [2, 3]: 3.75; chromatographic logP [2, 4]: 3.75; pest or weed control at 500 g/ha (Tetranychus urticae; application rate of 500 g/ha): 100%
Cc1ccc(-n2nc(-n3nc(Oc4ccccc4)n(C)c3=O)n(C)c2=O)cc1SCC(F)(F)F [Example 192]	3.68	3.76	90	
COc1nn(-c2cc(SCC(F)(F)F)c(Br)cc2F)c(=O)n1C [Example 175]	2.98	3.04		efficacy (Tetranychus urticae; application rate of 100 g/ha): 100%
Cc1cc(F)c(-n2nc(C(C)C)n(C3CC3)c2=S)cc1SCC(F)(F)F [Example 494]	4.02	4.1	100	
Cc1cc(F)c(-n2nc(C(C)C)n(N)c2=O)cc1S(=O)(=O)CC(F)(F)F [Example 417]	2.21	2.25	100	
Cc1cc(F)c(-n2nc(Br)n(C)c2=O)cc1[S+]([O-])CC(F)(F)F (centres unmarked) [Example 433]	1.99	2.02	100	
Cc1cc(F)c(-n2nc(SCc3ccccc3)n(C)c2=O)cc1[S+]([O-])CC(F)(F)F (racemic) [Example 287]	3.02	3.08	100	
C=C(C)CCOc1nn(-c2cc(SCC(F)(F)F)c(C)cc2F)c(=O)n1C1CC1 [Example 136]	4.33	4.37	90	
Cc1ccc(-n2nc(OC(C)C)n(C3CC3)c2=O)cc1SCC(F)(F)F [Example 91]	4.54	4.59	100	
CC[S+]([O-])c1nn(-c2cc(SCC(F)(F)F)c(C)cc2F)c(=O)n1C (centres unmarked) [Example 243, 5-(Ethylsulphinyl)-2-{2-fluoro-4-methyl-5-[(2,2,2-trifluoroethyl)sulphanyl]phenyl}-4-methyl-2,4-dihydro-3H-1,2,4-triazol-3-one]				chromatographic logP [1]: 2.51; chromatographic logP [2, 3]: 2.55; chromatographic logP [2, 4]: 2.55; pest or weed control at 500 g/ha (Tetranychus urticae; application rate of 500 g/ha): 100%
COc1cc(F)c(-n2nc(OCC(F)(F)F)n(C3CC3)c2=O)cc1SCC(F)(F)F [Example 188]	3.46	3.49		efficacy (Tetranychus urticae; application rate of 100 g/ha): 90%

SMILES	logP[b] [1]	logP[a] [2]	efficacy (Tetranychus urticae; application rate of 500 g/ha) [%]	also measured
CCn1c(OC)nn(-c2cc(SCC(F)(F)F)c(C)cc2F)c1=O [Example 180]	3.10	3.16	100	
COC1=CC(=O)N(c2cc(SCC(F)(F)F)c(C)cc2C)C1 [Example 312]	2.81	2.88	90	
Cc1cc(F)c(-n2nc(C(F)(F)F)n(N)c2=O)cc1SCC(F)(F)F [Example 205]	3.08	3.15	100	
Cc1ccc(-n2nc(OCC(C)(C)C)n(C)c2=O)cc1[S+]([O-])CC(F)(F)F (centres unmarked) [Example 162]	3.57	3.67	90	
CCOC1=CC(=O)N(c2cc([S+]([O-])CC(F)(F)F)c(C)cc2F)C1 (centres unmarked) [Example 334]	2.14	2.19		efficacy (Tetranychus urticae; application rate of 20 g/ha): 90%
CCCn1c(OC)nn(-c2cc(SCC(F)(F)F)c(C)cc2F)c1=O [Example 389]	3.46	3.53	90	
Cc1cc(F)c(-n2nc([S+](C)[O-])n(C)c2=O)cc1[S+]([O-])CC(F)(F)F (centres unmarked) [Example 233]	1.44	1.47	100	
C=CCOc1nn(-c2cc([S+]([O-])CC(F)(F)F)c(C)cc2F)c(=O)n1C1CC1 (centres unmarked) [Example 391]	2.65	2.68	100	
COc1nn(-c2cc([S+]([O-])CC(F)(F)F)c(Cl)cc2Cl)c(=O)n1C (centres unmarked) [Example 97]	2.24	2.26	90	
CCc1nn(-c2cc(SCC(F)(F)F)c(C)cc2F)c(=O)n1C1CC1 [Example 77]	3.18	3.24	100	
Cc1cc(F)c(-n2nc(C)n(N)c2=O)cc1SCC(F)(F)F [Example 200]	2.13	2.18	100	
CCCSc1nn(-c2cc(SCC(F)(F)F)c(C)cc2F)c(=O)n1C [Example 277]	3.86	3.90	100	
CC(C)(C)COc1nn(-c2cc(SCC(F)(F)F)c(Cl)cc2Cl)c(=O)n1C1CC1 [Example 397]	5.04	5.12	100	
CCn1c(S(C)(=O)=O)nn(-c2cc([S+]([O-])CC(F)(F)F)c(C)cc2F)c1=O (centres unmarked) [Example 422]	2.11	2.12	100	
Cc1cc(F)c(-n2nc([S+]([O-])CC3CC3)n(C)c2=O)cc1SCC(F)(F)F (centres unmarked) [Example 247]	2.85	2.94	100	
Cc1cc(F)c(-n2nc([S+]([O-])C(C)C)n(C3CC3)c2=O)cc1[S+]([O-])CC(F)(F)F (centres unmarked) [Example 239]	2.03	2.08	100	
COCCOC1=CC(=O)N(c2cc([S+]([O-])CC(F)(F)F)c(C)cc2F)C1 (centres unmarked) [Example 335]	1.86	1.92	90	
COc1nn(-c2cc([S+]([O-])CC(F)(F)F)c(Br)cc2F)c(=O)n1C1CC1 (centres unmarked) [Example 172]	2.53	2.57	100	
CCn1c(OCC(F)(F)F)nn(-c2cc(SCC(F)(F)F)c(C)cc2F)c1=O [Example 398]	3.79	3.84	100	
